TGI and GI50 data for 17 molecules are collected here from PubChem BioAssay (NCI).

Test systems include IGROV1 ovarian; HCC-2998 colon; HOP-62 NSCLC; CAKI-1 renal; SF-295 CNS; U251 CNS; CCRF-CEM leukemia; SNB-75 CNS; LOX IMVI melanoma; SN12C renal.
Test in all cases: growth of human tumour cells (NCI), 48 h

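Dose response: 5 concentrations. Exposure: 48 h. Format: 96-well plates. Endpoint: linear interpolation; highest concentration if not reached. At the GI50, growth is halved. TGI: total growth inhibition.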 Some results are limits rather than exact numbers.

`CSc1nc(Cl)c(Br)c(Sc2nc(N)nc3nc[nH]c23)n1`: the TGI in the test on IGROV1 ovarian came out at 28.2 µM; in the test on HCC-2998 colon, 15.2 µM; in the test on HOP-62 NSCLC it was 8.69 µM; with CAKI-1 renal it was 10.2 µM; in the test on SF-295 CNS, 17.7 µM; with U251 CNS, 16.4 µM. Moreover, the TGI turned out to be 9.38 µM in the test with CCRF-CEM leukemia and 9.74 µM with SNB-75 CNS.

In the case of `N=C(c1ccc2ccccc2c1)c1ccccc1Cc1ccccc1`, the TGI in the test on IGROV1 ovarian, in the test with HCC-2998 colon, with LOX IMVI melanoma, in the test on HOP-62 NSCLC, in the test on CAKI-1 renal and with SF-295 CNS was above 100 µM throughout. Further, the TGI was above 100 µM in the test on SN12C renal, above 100 µM with U251 CNS and 82.8 µM in the test on CCRF-CEM leukemia.

As for `O=C1c2ccccc2C(=O)c2c(Nc3ccc4c5c(cccc35)C(=O)c3ccccc3-4)cccc21`, the TGI in the test on IGROV1 ovarian, in the test with HCC-2998 colon, in the test on LOX IMVI melanoma, in the test on HOP-62 NSCLC, in the test with CAKI-1 renal and in the test on SF-295 CNS was above 100 µM in each case. For the same molecule, the TGI with SN12C renal, in the test with U251 CNS and in the test with SNB-75 CNS was above 100 µM throughout.

Regarding `CCOC(=O)C12CCC(=O)C=C1[C@@H](C)C(=O)CC2` (some centres not stated), the TGI in the test with IGROV1 ovarian, in the test on HCC-2998 colon, with LOX IMVI melanoma, with HOP-62 NSCLC, in the test with SF-295 CNS and in the test on SN12C renal was above 100 µM in each case. Moreover, the TGI with U251 CNS and in the test on SNB-75 CNS was above 100 µM in each case.

For `O=C(CNc1cccc([N+](=O)[O-])c1)Nn1c(-c2ccccc2)nc2ccccc2c1=O`, the TGI in the test on IGROV1 ovarian amounted to 0.482 µM; in the test on HCC-2998 colon it was 2.81 µM; in the test on LOX IMVI melanoma, 0.663 µM; in the test with HOP-62 NSCLC, 4.25 µM; in the test on SF-295 CNS it was 3.28 µM; in the test with SN12C renal it was 2.73 µM. Further, the TGI in the test on U251 CNS came out at 2.88 µM; with CCRF-CEM leukemia it was 1.15 µM.

`CC(C)(C)N1C(C(=O)c2ccccc2)C1c1ccccc1` (configuration not stated): the TGI in the test on IGROV1 ovarian, in the test on HCC-2998 colon, with LOX IMVI melanoma, with HOP-62 NSCLC, in the test on SN12C renal and in the test with U251 CNS was above 100 µM throughout. Further, the TGI in the test with CCRF-CEM leukemia and in the test with SNB-75 CNS was above 100 µM each time.

Take `N#CN=C(N)NC(=O)/C=C/C=C/c1ccc(Cl)cc1`: the TGI with IGROV1 ovarian, with LOX IMVI melanoma, in the test on HOP-62 NSCLC, in the test on CAKI-1 renal, in the test with SF-295 CNS and with SN12C renal was above 100 µM each time. The TGI in the test with U251 CNS is above 100 µM; with CCRF-CEM leukemia it was above 100 µM; with SNB-75 CNS, 54.8 µM.

For the molecule `CC(C)(C)OC(=O)c1cnc(Cl)cn1`, the TGI was 44.7 µM in the test on IGROV1 ovarian; 62.9 µM in the test with LOX IMVI melanoma; above 100 µM in the test with HOP-62 NSCLC; 16.6 µM in the test on CAKI-1 renal; above 100 µM in the test on SF-295 CNS; above 100 µM with SN12C renal. Also, the results for the TGI in the test on U251 CNS, with CCRF-CEM leukemia and with SNB-75 CNS were above 100 µM, 72.7 µM and above 100 µM, respectively.

Regarding `CC(C)c1cc(CN(C)C)c(O)c(C(C)(C)C)c1`, the TGI was above 100 µM in the test with IGROV1 ovarian; 29.6 µM with HCC-2998 colon; 32.5 µM in the test on LOX IMVI melanoma; 62.9 µM in the test on HOP-62 NSCLC; 53.8 µM with CAKI-1 renal; 37.4 µM with SF-295 CNS. In addition, the TGI worked out at 33.1 µM with SN12C renal, 30 µM with U251 CNS and 30 µM in the test on CCRF-CEM leukemia.

For `O=c1ccc2nc(-c3ccccc3)nn(-c3ccccn3)c-2c1`, the GI50 was 14.1 µM in the test on IGROV1 ovarian; 20.9 µM in the test on HCC-2998 colon; 4.03 µM with LOX IMVI melanoma; 21.8 µM in the test on HOP-62 NSCLC; 1.5 µM in the test with CAKI-1 renal; 31 µM in the test with SF-295 CNS. The GI50 in the test on SN12C renal is 16.9 µM; with U251 CNS, 17.2 µM; in the test on SNB-75 CNS, 13.2 µM. The TGI in the test on IGROV1 ovarian was 45.4 µM; with HCC-2998 colon it was 44.5 µM; in the test with LOX IMVI melanoma it was 25.3 µM; with HOP-62 NSCLC it was 82.9 µM; in the test with CAKI-1 renal, 2.84 µM; in the test with SF-295 CNS it was above 100 µM. Also, the TGI was 37.9 µM with SN12C renal, 42.4 µM in the test on U251 CNS and 26 µM in the test on SNB-75 CNS.

On to `Nc1nc(N)c2c(n1)NC(=O)c1c(c3ccccc3n1Cc1ccc(Cl)cc1)C2`, for which the TGI in the test on IGROV1 ovarian is above 100 µM; in the test with HCC-2998 colon, 34.4 µM; with LOX IMVI melanoma it was 56.4 µM; in the test on HOP-62 NSCLC, 57.5 µM; in the test with CAKI-1 renal, 34.5 µM; in the test on SF-295 CNS, 84.7 µM. The TGI is 38.2 µM in the test on SN12C renal, above 100 µM in the test with U251 CNS, 42.8 µM with CCRF-CEM leukemia and 69.2 µM with SNB-75 CNS.

Regarding `Nc1c2c(=O)[nH]c(=O)c2c(N)c2c(=O)c3ccccc3c(=O)c12`, the TGI is 10.8 µM with IGROV1 ovarian; above 63.3 µM in the test with HCC-2998 colon; 6.85 µM with HOP-62 NSCLC; 22.9 µM with CAKI-1 renal; 3.07 µM in the test with SF-295 CNS; 3.17 µM in the test with SN12C renal. In addition, the TGI with U251 CNS is above 90 µM; with CCRF-CEM leukemia, above 26.7 µM.

Turning to `CC(=O)OC(C)C1C2=C(C(=O)CC1(C)O)C(=O)c1c(ccc(-c3ccc4c(c3O)C(=O)C3=C(C4=O)C(C(C)OC(C)=O)C(C)(O)CC3=O)c1O)C2=O` (configuration not stated), the TGI was found to be 22.4 µM in the test on IGROV1 ovarian; 25.9 µM with HCC-2998 colon; 3.07 µM with LOX IMVI melanoma; 33.4 µM in the test with HOP-62 NSCLC; 6.06 µM in the test with CAKI-1 renal; 24 µM with SF-295 CNS. The TGI is 6.58 µM in the test with SN12C renal, 12.9 µM in the test on U251 CNS, above 100 µM with CCRF-CEM leukemia and 5.92 µM with SNB-75 CNS.

`C=CC[N+]12CN3CN(CN(C3)C1)C2`: the TGI in the test on IGROV1 ovarian is 66.4 µM; with HCC-2998 colon, 55.8 µM; in the test with LOX IMVI melanoma it was 83 µM; in the test on HOP-62 NSCLC, above 100 µM; in the test with CAKI-1 renal, 37.1 µM; with SF-295 CNS it was above 100 µM. The TGI in the test with SN12C renal was 60.2 µM; in the test on U251 CNS, above 100 µM; in the test on CCRF-CEM leukemia it was 30.3 µM; in the test on SNB-75 CNS, 48.1 µM.

With `COc1ccc(C[C@H](N)C(=O)NC2C(CO)OC(n3cnc4c(N(C)C)ncnc43)C2O)cc1` (some centres not stated), the TGI in the test on IGROV1 ovarian was 2.66 µM; with HCC-2998 colon it was 1.01 µM; in the test on LOX IMVI melanoma it was 0.288 µM; with HOP-62 NSCLC, 2.07 µM; with SF-295 CNS, 1.57 µM; in the test with U251 CNS, 0.131 µM. In addition, the figures for the TGI in the test with CCRF-CEM leukemia and in the test on SNB-75 CNS were 0.845 µM and 0.744 µM, respectively.

In the case of `COC(=O)Nc1nc2cc(OC)c(OC)cc2c(=O)[nH]1`, the TGI in the test with IGROV1 ovarian is above 100 µM; in the test with HCC-2998 colon, above 100 µM; with HOP-62 NSCLC, above 100 µM; with CAKI-1 renal, above 100 µM; with SF-295 CNS, 37 µM; in the test on SN12C renal, above 100 µM. The TGI in the test with U251 CNS is above 100 µM; in the test with CCRF-CEM leukemia, above 100 µM; with SNB-75 CNS, 43.6 µM.

Consider `NC(=O)C(N)=O`, for which the TGI in the test on HCC-2998 colon, in the test with LOX IMVI melanoma, in the test with HOP-62 NSCLC, in the test on SF-295 CNS, with SN12C renal and in the test on U251 CNS was above 100 µM throughout. For the same molecule, the TGI in the test with CCRF-CEM leukemia was above 100 µM.
